The record followed here is patent US10087178B2, “Substituted spiropyrido[1,2-a]pyrazine derivative and medicinal use thereof as HIV integrase inhibitor” (priority 2012, dated 2018).

A word on the EC50: it is the concentration at which the effect is half-maximal.

Where a name gives a salt, the structure may show the parent alone.

The subject of the first assay is HIV-1 NL4-3 strain. The assay is described as follows: Evaluation of antiviral activity: acute infection system of MT-4 cell with HIV-1 NL4-3 strain. Type of assay: cell-based. The settings on record: Human immunodeficiency virus 1, NL43, MT4, 120 h, MT-4 cells infected with HIV-1 NL4-3 strain (MOI 0.05), cultured 5 days, Cell Titer-Glo; read-out: antiviral activity (EC50).
As to `COC[C@H]1C[C@]2(CN(C)C(=O)c3c(OC(=O)c4cccc(C(=O)O)c4)c(=O)c(C(=O)NCc4cccc(Cl)c4F)cn32)C1` [Example 40, Monosodium 3-{[7′-(3-chloro-2-fluorobenzylcarbamoyl)-cis-3-(methoxymethyl)-2‘-methyl-’,8′-dioxo-1′,2′,3′,8′-tetrahydrospiro[cyclobutane-1,4′-pyrido[1,2-a]pyrazin]-9′-yloxy]carbonyl}benzoate], the 50% effective concentration (EC50) amounted to 1 nM.

Consider `CC(C)O[C@H]1C[C@]2(CN(C)C(=O)c3c(O)c(=O)c(C(=O)NCc4cccc(Cl)c4F)cn32)C1` [Example S41, N-(3-chloro-2-fluorobenzyl)-9′-hydroxy-cis-3-isopropoxy-2′-methyl-1′,8′-dioxo-1′,2′,3′,8′-tetrahydrospiro[cyclobutane-1,4′-pyrido[1,2-a]pyrazine]-7′-carboxamide hydrochloride], for which the half-maximal effective concentration (EC50) is 3.5 nM.

Take `CC(C)N1C[C@]2(C[C@@H](OS(C)(=O)=O)C2)n2cc(C(=O)NCc3ccc(F)cc3F)c(=O)c(O)c2C1=O` [Example S34, 7′-(2,4-difluorobenzylcarbamoyl)-9′-hydroxy-2′-isopropyl-1′,8′-dioxo-1′,2′,3′,8′-tetrahydrospiro[cyclobutane-1,4′-pyrido[1,2-a]pyrazine]- trans-3-yl methanesulfonate hydrochloride]: the EC50 was 5.7 nM.

As for `CCN1C(=O)c2c(O)c(=O)c(C(=O)NCc3cccc(Cl)c3F)cn2C[C@]12C[C@@H](COC)C2` [Example S59, N-(3-chloro-2-fluorobenzyl)-2′-ethyl-9′-hydroxy-trans-3-(methoxymethyl)-1′,8′-dioxo-1′,2′,4′,8′-tetrahydrospiro[cyclobutane-1,3′-pyrido[1,2-a]pyrazine]-7′-carboxamide hydrochloride], the 50% effective concentration (EC50) was found to be 4 nM.

`CN1C[C@]2(C[C@H](CO)C2)n2cc(C(=O)NCc3cccc(Cl)c3F)c(=O)c(O)c2C1=O` [Example S37, N-(3-chloro-2-fluorobenzyl)-9′-hydroxy-cis-3-(hydroxymethyl)-2′-methyl-1′,8′-dioxo-1′,2′,3′,8′-tetrahydrospiro[cyclobutane-1,4′-pyrido[1,2-a]pyrazine]-7′-carboxamide hydrochloride]: the concentration for a half-maximal effect (EC50) was 3.8 nM.

Turning to `CN1C[C@]2(C[C@@H](CO)C2)n2cc(C(=O)NCc3cccc(Cl)c3F)c(=O)c(O)c2C1=O` [Example S36, N-(3-chloro-2-fluorobenzyl)-9′-hydroxy-trans-3-(hydroxymethyl)-2′-methyl-1′,8′-dioxo-1′,2′,3′,8′-tetrahydrospiro[cyclobutane-1,4′-pyrido[1,2-a]pyrazine]-7′-carboxamide], the concentration giving a half-maximal response (EC50) was 15 nM.

Take `COC[C@H]1C[C@]2(CN(C)C(=O)c3c(OC(=O)c4ccccc4)c(=O)c(C(=O)NCc4cccc(Cl)c4F)cn32)C1` [Example S70, 7′-(3-chloro-2-fluorobenzylcarbamoyl)-cis-3-(methoxymethyl)-2′-methyl-1′,8′-dioxo-1′,2′,3′,8′-tetrahydrospiro[cyclobutane-1,4′-pyrido[1,2-a]pyrazin]-9′-yl benzoate]: the EC50 is 1.4 nM.

As for `CCCO[C@H]1C[C@]2(CN(C)C(=O)c3c(O)c(=O)c(C(=O)NCc4cccc(Cl)c4F)cn32)C1` [Example S43, N-(3-chloro-2-fluorobenzyl)-9′-hydroxy-2′-methyl-1′-8′-dioxo-cis-3-propoxy-1′,2′,3′,8′-tetrahydrospiro[cyclobutane-1,4′-pyrido[1,2-a]pyrazine]-7′-carboxamide hydrochloride], the 50% effective concentration (EC50) is 4.7 nM.

For the molecule `CO[C@H]1C[C@]2(Cn3cc(C(=O)NCc4ccc(F)cc4F)c(=O)c(O)c3C(=O)N2C(C)C)C1` [Example S53, N-(2,4-difluorobenzyl)-9′-hydroxy-2′-isopropyl-cis-3-methoxy-1′,8′-dioxo-1′,2′,4′,8′-tetrahydrospiro[cyclobutane-1,3′-pyrido[1,2-a]pyrazine]-7′-carboxamide hydrochloride], the concentration for a half-maximal effect (EC50) was determined as 10 nM.

On to `COC[C@H]1C[C@]2(CN(C)C(=O)c3c(OC(=O)c4ccc(C)cc4)c(=O)c(C(=O)NCc4cccc(Cl)c4F)cn32)C1` [Example S72, 7′-(3-chloro-2-fluorobenzylcarbamoyl)-cis-3-(methoxymethyl)-2′-methyl-1′,8′-dioxo-1′,2′,3′,8′-tetrahydrospiro[cyclobutane-1,4′-pyrido[1,2-a]pyrazin]-9′-yl 4-methylbenzoate], for which the EC50 is 0.9 nM.

As for `CC(C)N1C[C@]2(C[C@H](OS(C)(=O)=O)C2)n2cc(C(=O)NCc3ccc(F)cc3F)c(=O)c(O)c2C1=O` [Example S35, 7′-(2,4-difluorobenzylcarbamoyl)-9′-hydroxy-2′-isopropyl-1′,8′-dioxo-1′,2′,3′,8′-tetrahydrospiro[cyclobutane-1,4′-pyrido[1,2-a]pyrazine]- cis-3-yl methanesulfonate hydrochloride], the EC50 came to 7.3 nM.

The same assay, now with this note: Human immunodeficiency virus 1, NL43, MT4, 120 h, antiviral activity; MT-4 cells infected with HIV-1 NL4-3 (MOI 0.05), 5 days culture, Cell Titer-Glo luminescence.
As for `CC(C)N1C[C@]2(C[C@@H]2CO)n2cc(C(=O)NCc3ccc(F)cc3F)c(=O)c(O)c2C1=O` [Example 13, (1R,2S)—N-(2,4-difluorobenzyl)-9′-hydroxy-2-(hydroxymethyl)-2′-isopropyl-1′,8′-dioxo-1′,2′,3′,8′-tetrahydrospiro[cyclopropane-1,4′-pyrido[1,2-a]pyrazine]-7′-carboxamide hydrochloride], the midpoint of the response, the EC50, lay at 5.4 nM.

On to `CC(C)N1C[C@]2(C[C@H]2CO)n2cc(C(=O)NCc3ccc(F)cc3F)c(=O)c(O)c2C1=O` [Example 11, (1R,2R)—N-(2,4-difluorobenzyl)-9′-hydroxy-2-(hydroxymethyl)-2′-isopropyl-1′,8′-dioxo-1′,2′,3′,8′-tetrahydrospiro[cyclopropane-1,4′-pyrido[1,2-a]pyrazine]-7′-carboxamide hydrochloride], for which the EC50 came to 5.8 nM.

On to `COC[C@H]1C[C@@]12CN(C(C)C)C(=O)c1c(O)c(=O)c(C(=O)NCc3ccc(F)cc3F)cn12` [Example 10, (1S,2S)—N-(2,4-difluorobenzyl)-9′-hydroxy-2′-isopropyl-2-(methoxymethyl)-1′,8′-dioxo-1′,2′,3′,8′-tetrahydrospiro[cyclopropane-1,4′-pyrido[1,2-a]pyrazine]-7′-carboxamide hydrochloride], for which the 50% effective concentration (EC50) is 3.6 nM.

As for `COC[C@@H]1C[C@]12CN(C(C)C)C(=O)c1c(O)c(=O)c(C(=O)NCc3ccc(F)cc3F)cn12` [Example 12, (1R,2R)—N-(2,4-difluorobenzyl)-9′-hydroxy-2′-isopropyl-2-(methoxymethyl)-1′,8′-dioxo-1′,2′,3′,8′-tetrahydrospiro[cyclopropane-1,4′-pyrido[1,2-a]pyrazine]-7′-carboxamide hydrochloride], the EC50 came to 5 nM.

The assay is the same for the next values; noted with them: Human immunodeficiency virus 1, NL43, MT4, 120 h, antiviral activity; MT-4 cells infected with HIV-1 NL4-3 (MOI 0.05), 5 days culture, Cell Titer-Glo luminescence; read-out: EC50.
Turning to `CCN1C[C@]2(C[C@H](O)C2)n2cc(C(=O)NCc3ccc(F)cc3F)c(=O)c(O)c2C1=O` [Example S18, N-(2,4-difluorobenzyl)-2′-ethyl-cis-3,9′-dihydroxy-1′,8′-dioxo-1′,2′,3′,8′-tetrahydrospiro[cyclobutane-1,4′-pyrido[1,2-a]pyrazine]-7′-carboxamide hydrobromide], the concentration for a half-maximal effect (EC50) was 16 nM.

In the case of `CCN1C[C@]2(C[C@@H](OCc3ccccc3)C2)n2cc(C(=O)NCc3ccc(F)cc3F)c(=O)c(O)c2C1=O` [Example S15, trans-3-(benzyloxy)-N-(2,4-difluorobenzyl)-2′-ethyl-9′-hydroxy-1′,8′-dioxo-1′,2′,3′,8′-tetrahydrospiro[cyclobutane-1,4′-pyrido[1,2-a]pyrazine]-7′-carboxamide hydrochloride], the EC50 turned out to be 6.9 nM.

Consider `CCN1C[C@]2(C[C@@H](O)C2)n2cc(C(=O)NCc3ccc(F)cc3F)c(=O)c(O)c2C1=O` [Example S17, N-(2,4-difluorobenzyl)-2′-ethyl-trans-3,9′-dihydroxy-1′,8′-dioxo-1′,2′,3′,8′-tetrahydrospiro[cyclobutane-1,4′-pyrido[1,2-a]pyrazine]-7′-carboxamide hydrobromide], for which the concentration for a half-maximal effect (EC50) stood at 20 nM.

Take `CN1C[C@]2(C[C@H](O)C2)n2cc(C(=O)NCc3ccc(F)cc3F)c(=O)c(O)c2C1=O` [Example S12, N-(2,4-difluorobenzyl)-cis-3,9′-dihydroxy-2′-methyl-1′,8′-dioxo-1′,2′,3′,8′-tetrahydrospiro[cyclobutane-1,4′-pyrido[1,2-a]pyrazine]-7′-carboxamide hydrobromide]: the concentration for a half-maximal effect (EC50) stood at 23 nM.

Still in this assay, the particulars now being: Human immunodeficiency virus 1, NL43, MT4, 120 h, read-out: antiviral activity (EC50), MT-4 cells infected with HIV-1 NL4-3 strain (MOI 0.05), cultured 5 days, Cell Titer-Glo.
As for `COC[C@@H]1C[C@]12Cn1cc(C(=O)NCc3cccc(Cl)c3F)c(=O)c(O)c1C(=O)N2C` [Example T50, (1R,2R)-N-(3-chloro-2-fluorobenzyl)-9′-hydroxy-2-(methoxymethyl)-2′-methyl-1′,8′-dioxo-1′,2′,4′,8′-tetrahydrospiro[cyclopropane-1,3′-pyrido[1,2-a]pyrazine]-7′-carboxamide hydrochloride], the EC50 came to 3.7 nM.

Take `CCOc1cc(Cl)c(F)c(CNC(=O)c2cn3c(c(O)c2=O)C(=O)N(C)C[C@@]32C[C@@H]2COC)c1` [Example T25, (1S,2S)-N-(3-chloro-5-ethoxy-2-fluorobenzyl)-9′-hydroxy-2-(methoxymethyl)-2′-methyl-1′,8′-dioxo-1′,2′,3′,8′-tetrahydrospiro[cyclopropane-1,4′-pyrido[1,2-a]pyrazine]-7′-carboxamide hydrochloride]: the EC50 was determined as 7 nM.

Still in this assay, the particulars now being: Human immunodeficiency virus 1, NL43, MT4, 120 h; read-out: antiviral activity (EC50).
As for `COC[C@H]1C[C@]2(CN(C)C(=O)c3c(O)c(=O)c(C(=O)NCc4cccc(Cl)c4F)cn32)C1` [Example 29, Monopotassium 7′-(3-chloro-2-fluorobenzylcarbamoyl)-cis-3-(methoxymethyl)-2′-methyl-1′,8′-dioxo-1′,2′,3′,8′-tetrahydrospiro[cyclobutane-1,4′-pyrido[1,2-a]pyrazin]-9′-olate], the EC50 came to 2.5 nM.
